Laboratory results taken from patent publication US20170066717A1, “NEW PHENYLAZETIDINECARBOXYLATE OR -CARBOXAMIDE COMPOUNDS” (INVENTIVA, priority 2014, published 2017).

Key:
NURR-1/RXRα = target: T1, NURR-1/RXRα (Homo sapiens, UniProt P19793); test: Transactivation test, NURR-1-Gal4/RXRα, luciferase reporter in Cos-7 cells; type: cell-based; details: for Emax: COS-7, induction level relative to reference XCT0135908 at 2×10^−5 M (=100%), read-out: hNurr1_RXRaFL Emax (%); for EC50: Cos-7 cells, NURR-1-Gal4/RXRα, luciferase reporter, read-out: hNurr1_RXRaFL EC50
T1 construct: expressed in transfected cells; host or cells: Cos-7 cells

[1] = test system: dopaminergic neurons of primary culture of rat embryo mesencephalon treated with MPP+; test: Neuroprotection in primary culture of rat embryo mesencephalon treated with MPP+ (count of tyrosine hydroxylase expressing cells); type: cell-based; details: recombinant human BDNF 10 ng/mL = 100%, 2 days with MPP+
Summary of the method: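 Rat embryo (E15) mesencephalon cultures, 5 days, then MPP+ with or without compound on day 6 for 2 days. Tyrosine hydroxylase-immunolabelled cells counted by image analysis; activity expressed as percent of recombinant human BDNF (10 ng/mL) reference, set at 100%.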

[2] = Plasma pharmacokinetics in mice after oral administration; type: in vivo; details: mouse, male C57/Bl6 mice, oral 10 mg/kg; for AUC: sampling 15 min to 7 h, log-linear trapezoidal method, read-out: AUCplasma; for Cmax: suspension in 1% methylcellulose/0.1% Poloxamer 188
Method: (§1) Three series of in vivo tests were carried out with compounds representative of the invention, for the purpose of determining their pharmacokinetic plasma profile and their brain penetration.
1. Study of the Plasma Phannacokinectis in Mice After Oral Administration
Male C57/B16 mice (25-30 g) originating from the establishment Janvier, Le Genest-St-Isle, France were used for this study (9 mice per dose). The animals were fed with standard feed for rodents (Purina Mills, St. Louis, Mo.), placed in cages and subjected to light/darkness cycles of 12 h/12 h, the temperature of the room being maintained at 22±2° C. and the humidity level at 55±10%.
The mice were not deprived food before the administration. Water was provided at will throughout the study. The test compound was admistered orally at 10 mg/kg. For the oral administration at 10 mg/kg, the animals were green, by gavage, 10 mL/kg of a suspension of the test compound, prepared in 1% methylcellulose, 400 cps/0.1% Poloxamer 188/water.
The animals were sacrificed under anesthesia at times 15 min, 30 min, 1 h, 3 h and 7 h after gavage. The blood was collected at each time, and from each animal sacrificed 0.5 mL of blood collected in 1.5 mL tubes containing 20 μL of evaporated anticoagulant (solution of sodium heparinate at 1000 IU/mL) was centrifuged at 4500 g for 3 min in order to obtain approximately 200 μL of plasma. The plasma was divided up into 2 aliquots of 70 μL minimum, which were stoted at −20° C. until they were treated by protein precipitation and then analysis by liquid chromatography coupled to tandem mass spectrometry (LC-MS/MS) in order to quantify the compound tested.
The pharmacokinetic plasma parameters in the mice after oral administration were determined using a non-compartmental approach with the Phoenix WinNonLin software. The area under the curve (AUC0-1) was determined bv the log-linear trapezoidal method. The tesults are brought together in the following table.

NURR-1/RXRγ = target: T2, NURR-1/RXRγ (Homo sapiens, UniProt P48443); test: Transactivation test, NURR-1-Gal4/RXRγ, luciferase reporter in Cos-7 cells; type: cell-based; details: for Emax: COS-7, induction level relative to reference XCT0135908 at 2×10^−5 M (=100%), read-out: hNurr1_RXRgFL Emax (%); for EC50: Cos-7 cells, NURR-1-Gal4/RXRγ, luciferase reporter, read-out: hNurr1_RXRgFL EC50
T2 construct: expressed in transfected cells; host or cells: Cos-7 cells

[3] = Brain penetration in rats after intravenous administration; type: in vivo; details: rat; for Kp at 4 h: male, Wistar, intravenous, 4 mg/kg, ratio of Cmax brain to Cmax plasma after the 4 hours of infusion, rats, read-out: Kp (partition coefficient between the brain and the plasma); for Cmax at 4 h: male Wistar rats, 4 mg/kg iv infusion into the jugular vein for 4 hours, plasma at end of infusion
Method: as §1
2. Study of the Brain Penetration in Rats After Intravenous Administration
Male Wistar rats (250-300 g) originating from the establishment Janvier, Le Genest-St-Isle, France were used for this study (4 rats per study). The animals were fed with standard feed for rodents (Purina Mills, St. Louis, Mo.), placed in cages and subjected to light/darkness cycles of 12 h/12 h, the room temperature being maintained at 22±2° C. and the humidity level at 55±10%. The rats were not deprived food before the administration. Water was provided at will throughout the study.
The test compound was administered intravenously at 4 mg/kg by infusion into the jugular vein for 4 hours. For the intravenous administration, the animals were infused with 12 mL/kg of a solution of the test compound, prepared in 2% Cremophor EL/0.9% NaCl.
The animals were sacrificed under anesthesia after 4 hours of infusion. The blood and the brain were collected from each sacrificed animal 0.5 mL of blood collected in 1.5 mL tubes containing 20 μL of evaporated anticoagulant (solution of sodium heparinate at 1000 IU/mL) was centrifuged at 4500 g for 3 min in order to obtain approximately 200 μL of plasma. The plasma was divided up into 2 aliquots of 70 μL minimum, which were stored at −20° C. until they were treated by protein precipitation and then analysis by liquid chromatography coupled to tandem mass spectrometry (LC-MS/MS) in order to quantify the compound tested.
The brains were immersed in liquid nitrogen directly after they were removed, then stored at −20° C. for analysis. The brains were then ground in the presence of an aqueous/organic solvent mixture in order to obtain a homogenate. These homogenates were then centrifuged and the compound tested was extracted from the supernatant obtained, by liquid-liquid extraction, and then quantified by LC-MS/MS.
The brain penetration in the rats is represented by the Kp, which is the partition coefficient between the brain and the plasma. It is calculated by the ratio of the concentration measured in the brain (Cmax brain) and the plasma (Cmax plasma) after the 4 hours of infusion.

T2 sequence (P48443 whole entry, the tested form may be a part): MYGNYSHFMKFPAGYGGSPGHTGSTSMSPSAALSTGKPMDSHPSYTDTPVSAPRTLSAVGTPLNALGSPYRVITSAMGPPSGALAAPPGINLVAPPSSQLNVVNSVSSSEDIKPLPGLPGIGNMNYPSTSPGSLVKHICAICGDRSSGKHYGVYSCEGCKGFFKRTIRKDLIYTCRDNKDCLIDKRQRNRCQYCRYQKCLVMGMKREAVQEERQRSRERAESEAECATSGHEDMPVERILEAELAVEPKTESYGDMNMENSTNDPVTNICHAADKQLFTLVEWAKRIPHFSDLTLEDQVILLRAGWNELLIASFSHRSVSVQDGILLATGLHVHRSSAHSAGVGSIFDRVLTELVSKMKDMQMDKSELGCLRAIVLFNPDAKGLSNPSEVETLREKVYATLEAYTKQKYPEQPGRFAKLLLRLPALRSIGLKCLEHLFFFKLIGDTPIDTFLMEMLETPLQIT
T2 sequence (P43354 whole entry partner, the tested form may be a part): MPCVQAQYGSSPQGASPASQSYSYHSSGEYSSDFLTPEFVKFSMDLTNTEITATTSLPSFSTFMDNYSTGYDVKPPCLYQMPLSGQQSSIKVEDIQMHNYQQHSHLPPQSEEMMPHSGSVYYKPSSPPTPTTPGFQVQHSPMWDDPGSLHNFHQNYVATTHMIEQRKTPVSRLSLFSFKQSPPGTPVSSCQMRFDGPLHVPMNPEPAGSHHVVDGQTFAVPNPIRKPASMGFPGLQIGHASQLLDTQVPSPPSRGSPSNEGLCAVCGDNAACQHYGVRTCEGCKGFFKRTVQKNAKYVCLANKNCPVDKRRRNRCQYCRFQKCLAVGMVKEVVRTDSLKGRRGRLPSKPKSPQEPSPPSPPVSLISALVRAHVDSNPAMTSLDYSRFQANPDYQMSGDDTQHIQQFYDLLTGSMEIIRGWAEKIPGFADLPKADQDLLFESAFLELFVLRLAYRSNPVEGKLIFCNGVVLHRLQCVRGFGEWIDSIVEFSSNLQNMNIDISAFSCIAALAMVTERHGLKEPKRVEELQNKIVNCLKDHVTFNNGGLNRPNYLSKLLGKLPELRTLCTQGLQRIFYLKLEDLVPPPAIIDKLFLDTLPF
T2 sequence (P04386 1-147 partner limits assumed): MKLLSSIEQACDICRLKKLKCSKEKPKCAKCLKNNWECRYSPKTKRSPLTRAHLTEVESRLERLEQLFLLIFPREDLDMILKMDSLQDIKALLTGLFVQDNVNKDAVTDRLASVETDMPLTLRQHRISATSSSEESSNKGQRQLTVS
T1 sequence (P19793 whole entry, the tested form may be a part): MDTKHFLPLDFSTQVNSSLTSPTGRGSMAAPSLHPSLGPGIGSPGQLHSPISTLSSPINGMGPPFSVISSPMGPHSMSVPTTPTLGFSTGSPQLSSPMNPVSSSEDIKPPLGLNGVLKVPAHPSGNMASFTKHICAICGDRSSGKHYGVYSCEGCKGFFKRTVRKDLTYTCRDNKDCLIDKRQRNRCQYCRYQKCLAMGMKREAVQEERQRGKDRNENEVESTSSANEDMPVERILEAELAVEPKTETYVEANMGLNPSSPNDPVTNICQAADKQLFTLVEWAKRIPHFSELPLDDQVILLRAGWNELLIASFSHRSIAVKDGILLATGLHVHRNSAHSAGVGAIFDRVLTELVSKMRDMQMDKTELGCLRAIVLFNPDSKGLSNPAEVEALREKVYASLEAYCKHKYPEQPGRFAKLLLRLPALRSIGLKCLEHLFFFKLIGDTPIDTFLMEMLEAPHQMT
T1 sequence (P43354 whole entry partner, the tested form may be a part): as the sequence (P43354 whole entry partner, the tested form may be a part) above
T1 sequence (P04386 1-147 partner limits assumed): as the sequence (P04386 1-147 partner limits assumed) above

CC(C)(C)c1cc(-c2cccc(N3CC(C(=O)O)C3)c2)cc(C(C)(C)C)c1 [Example 11, 1[3-(3,5-di-tert-butylphenyl)phenyl]azetidine-3-carboxylic acid]
Emax (NURR-1/RXRα): 105% | EC50 (NURR-1/RXRα): 11 nM | percentage of activity relative to the BDNF reference ([1]; compound 1 μM): 78% | percentage of activity relative to the BDNF reference ([1]; compound 10 μM): 88% | AUC [2]: 52000 ng·h/mL | Cmax [2]: 10300 ng/mL | Emax (NURR-1/RXRγ): 100% | EC50 (NURR-1/RXRγ): 14 nM | Kp at 4 h [3]: 1.22 | Cmax at 4 h [3]: 4140 ng/mL

Cc1cc(-c2ccc(Cl)c(C(F)(F)F)c2)cc(N2CC(C(=O)O)C2)c1 [Example 22, 1-[3-[4-chloro-3-(trifluoromethyl)phenyl]-5-methylphenyl]azetidine-3-carboxylic acid]
Emax (NURR-1/RXRα): 91% | EC50 (NURR-1/RXRα): 9 nM | percentage of activity relative to the BDNF reference ([1]; compound 1 μM): 79% | percentage of activity relative to the BDNF reference ([1]; compound 10 μM): 103% | AUC [2]: 72200 ng·h/mL | Cmax [2]: 18600 ng/mL | Emax (NURR-1/RXRγ): 87% | EC50 (NURR-1/RXRγ): 13 nM | Kp at 4 h [3]: 0.14 | Cmax at 4 h [3]: 9900 ng/mL

Cc1cc(N2CC(C(=O)O)C2)cc(-n2ccc3cc(C(F)(F)F)ccc32)c1 [Example 50, 1-[3-methyl-5[5-(trifluoromethyl)indol-1-yl]phenyl]azetidine-3-carboxylic acid]
Emax (NURR-1/RXRα): 95% | EC50 (NURR-1/RXRα): 2 nM | percentage of activity relative to the BDNF reference ([1]; compound 1 μM): 74% | percentage of activity relative to the BDNF reference ([1]; compound 10 μM): 91% | AUC [2]: 24300 ng·h/mL | Cmax [2]: 11400 ng/mL | Emax (NURR-1/RXRγ): 102% | EC50 (NURR-1/RXRγ): 5 nM | Kp at 4 h [3]: 0.19 | Cmax at 4 h [3]: 4920 ng/mL

O=C(O)C1CN(c2cccc(-c3cc(C(F)(F)F)ccc3OCCc3cccs3)c2)C1 [Example 100, 1-[3-[2-[2-(2-thienyl)ethoxy]-5-(trifluoromethyl)phenyl]phenyl]azetidine-3-carboxylic acid]
Emax (NURR-1/RXRα): 63% | EC50 (NURR-1/RXRα): 14 nM | percentage of activity relative to the BDNF reference ([1]; compound 1 μM): 100% | percentage of activity relative to the BDNF reference ([1]; compound 10 μM): 106% | AUC [2]: 56600 ng·h/mL | Cmax [2]: 11200 ng/mL | Emax (NURR-1/RXRγ): 63% | EC50 (NURR-1/RXRγ): 24 nM | Kp at 4 h [3]: 0.75 | Cmax at 4 h [3]: 6070 ng/mL

Cc1nnc(COc2ccc(C(F)(F)F)cc2-c2cccc(N3CC(C(=O)O)C3)c2)o1 [Example 110, 1-[3-[2-[(5-methyl-1,3,4-oxadiazol-2-yl)methoxy]-5-(trifluoromethyl)phenyl]phenyl]azetidine-3-carboxylic acid]
Emax (NURR-1/RXRα): 49% | EC50 (NURR-1/RXRα): 1510 nM | percentage of activity relative to the BDNF reference ([1]; compound 1 μM): 74% | percentage of activity relative to the BDNF reference ([1]; compound 10 μM): 102% | AUC [2]: 40100 ng·h/mL | Cmax [2]: 8710 ng/mL | Emax (NURR-1/RXRγ): 32% | EC50 (NURR-1/RXRγ): 1720 nM | Kp at 4 h [3]: 0.2 | Cmax at 4 h [3]: 10100 ng/mL

O=C(O)C1CN(c2cccc(N3CC4(CCC4)Oc4cc(C(F)(F)F)ccc43)c2)C1 [Example 113, 1-[3-[7-(trifluoromethyl)spiro[3H-1,4-benzoxazine-2,1′-cyclobutane]-4-yl]phenyl]azetidine-3-carboxylic acid]
Emax (NURR-1/RXRα): 140% | EC50 (NURR-1/RXRα): 3 nM | percentage of activity relative to the BDNF reference ([1]; compound 1 μM): 90% | percentage of activity relative to the BDNF reference ([1]; compound 10 μM): 80% | AUC [2]: 3340 ng·h/mL | Cmax [2]: 2290 ng/mL | Emax (NURR-1/RXRγ): 139% | EC50 (NURR-1/RXRγ): 4 nM | Kp at 4 h [3]: 1.2 | Cmax at 4 h [3]: 3430 ng/mL

O=C(O)C1CN(c2cccc(N3CCOc4cc(C(F)(F)F)ccc43)c2)C1 [Example 115, 1-[3-[7-(trifluoromethyl)-2,3-dihydro-1,4-benzoxazin-4-yl]phenyl]azetidine-3-carboxylic acid]
Emax (NURR-1/RXRα): 114% | EC50 (NURR-1/RXRα): 58 nM | percentage of activity relative to the BDNF reference ([1]; compound 1 μM): 103% | percentage of activity relative to the BDNF reference ([1]; compound 10 μM): 77% | AUC [2]: 51600 ng·h/mL | Cmax [2]: 24400 ng/mL | Emax (NURR-1/RXRγ): 129% | EC50 (NURR-1/RXRγ): 22 nM | Kp at 4 h [3]: 0.22 | Cmax at 4 h [3]: 10600 ng/mL

CCCC1Oc2cc(C(F)(F)F)ccc2N(c2cccc(N3CC(C(=O)O)C3)c2)C1=O (stereo not drawn) [Example 122, 1-[3-[3-oxo-2-propyl-7-(trofluoromethyl)-1,4-benzoxazin-3-yl]phenyl]azetidine-3-caroxylic acid]
Emax (NURR-1/RXRα): 93% | EC50 (NURR-1/RXRα): 13 nM | percentage of activity relative to the BDNF reference ([1]; compound 1 μM): 92% | percentage of activity relative to the BDNF reference ([1]; compound 10 μM): 39% | AUC [2]: 34100 ng·h/mL | Cmax [2]: 7840 ng/mL | Emax (NURR-1/RXRγ): 95% | EC50 (NURR-1/RXRγ): 14 nM | Kp at 4 h [3]: 1.14 | Cmax at 4 h [3]: 3860 ng/mL

CN(C)Cc1cn(-c2cccc(N3CC(C(=O)O)C3)c2)c2ccc(C(F)(F)F)cc12 [Example 130, 1-[3-[3-(dimethylaminomethyl)-5-(trifluoromethyl)indol-1-yl]phenyl]azetidine-3-carboxylic acid]
Emax (NURR-1/RXRα): 113% | EC50 (NURR-1/RXRα): 246 nM | percentage of activity relative to the BDNF reference ([1]; compound 1 μM): 57% | percentage of activity relative to the BDNF reference ([1]; compound 10 μM): 103% | AUC [2]: 23000 ng·h/mL | Cmax [2]: 13800 ng/mL | Emax (NURR-1/RXRγ): 109% | EC50 (NURR-1/RXRγ): 513 nM | Kp at 4 h [3]: 0.13 | Cmax at 4 h [3]: 9010 ng/mL
